Patent US20100215579A1, “PHEN-NAPHTHALENE AND PHEN-QUINOLINE DERIVATIVES AND THEIR USE FOR BINDING AND IMAGING AMYLOID PLAQUES” (The Trustees of the University of Pennsylvania, priority 2007, published 2010)

Columns and labels:
[1] = Log P (octanol/Na2HPO4 buffer pH 7.4); format: physicochemical
amyloid plaques = biological target: T1, amyloid plaques (Homo sapiens, UniProt P05067); assay: Ki values of Phen-Nap, Nap-Phen derivatives (Ki binding data)
T1 construct: fibrillary Aβ plaques consisting predominately of aggregates of Aβ40 and Aβ42 peptides
T1 sequence (P05067 672-713 limits assumed): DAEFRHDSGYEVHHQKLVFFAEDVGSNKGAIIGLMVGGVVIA
T1 sequence (P05067 672-711 limits assumed): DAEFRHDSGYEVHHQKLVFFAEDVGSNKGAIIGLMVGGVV

[2] = Biodistribution in ICR mice after an iv injection; format: in vivo
Source text: Biodistribution in ICR Mice After an iv Injection of [^18F][4-(6-{2-[2-(2-Fluoro-ethoxy)-ethoxy]-ethoxy}-naphthalen-2-yl)-phenyl]-methyl-amine in 1% EtOH/0.1% BSA in Water
(% dose/organ, avg of 3 mice±SD)
(% dose/g, avg of 3 mice±SD)
Biodistribution in ICR Mice After an iv Injection of [^18F]19a in 3% EtOH/0.1% BSA in Water
Biodistribution in ICR Mice After an iv Injection of [^18F]34a in 5% EtOH/0.1% BSA in Water
Biodistribution in ICR Mice After an iv Injection of [^18F]32a in 1% EtOH/0.1% BSA in Water

[3] = Blood, 2 min after iv injection
[4] = Blood, 30 min after iv injection
[5] = Bone, 30 min after iv injection
[6] = Brain, 2 min after iv injection
[7] = Brain, 30 min after iv injection
[8] = Heart, 2 min after iv injection
[9] = Heart, 30 min after iv injection
[10] = Kidney, 2 min after iv injection
[11] = Kidney, 30 min after iv injection
[12] = Kidney, 1 hr after iv injection
[13] = Kidney, 2 hr after iv injection
[14] = Liver, 2 min after iv injection
[15] = Liver, 30 min after iv injection
[16] = Lung, 30 min after iv injection
[17] = Muscle, 2 min after iv injection
[18] = Muscle, 30 min after iv injection
[19] = Muscle, 1 hr after iv injection
[20] = Muscle, 2 hr after iv injection
[21] = Skin, 30 min after iv injection
[22] = Spleen, 2 min after iv injection
[23] = Spleen, 30 min after iv injection
[24] = Spleen, 1 hr after iv injection
[25] = Spleen, 2 hr after iv injection

CNc1ccc(-c2ccc3cc(OCCOCCOCCF)ccc3c2)cc1 [Compound 13a, 4-(6-(2-(2-(2-fluoroethoxy)ethoxy)ethoxy)naphthalen-2-yl)-N-methylbenzenamine]
logP ([1]; pH 7.4): 3.22 | Ki (amyloid plaques): 1.6 nM

CNc1ccc(-c2ccc3nc(OCCOCCOCC[18F])ccc3c2)cc1 [[^18F]34a]
Log P ([1]; octanol/0.05 M Na2HPO4 buffer (pH 7.4)): 3.23 | % dose/g [2, 3]: 2.50 ± 0.14 % dose/g | % dose/organ [2, 3]: 4.29 ± 0.20 % dose/organ | % dose/g [2, 4]: 1.49 ± 0.15 % dose/g | % dose/organ [2, 4]: 2.51 ± 0.18 % dose/organ | % dose/g ([2]; Blood, 1 hr after iv injection): 1.61 ± 0.12 % dose/g | % dose/organ ([2]; Blood, 1 hr after iv injection): 2.87 ± 0.20 % dose/organ | % dose/g ([2]; Blood, 2 hr after iv injection): 1.52 ± 0.23 % dose/g | % dose/organ ([2]; Blood, 2 hr after iv injection): 2.58 ± 0.26 % dose/organ | % dose/g ([2]; Bone, 2 min after iv injection): 1.11 ± 0.11 % dose/g | % dose/organ ([2]; Bone, 2 min after iv injection): 3.82 ± 0.33 % dose/organ | % dose/g [2, 5]: 1.16 ± 0.20 % dose/g | % dose/organ [2, 5]: 3.87 ± 0.43 % dose/organ | % dose/g ([2]; Bone, 1 hr after iv injection): 1.49 ± 0.18 % dose/g | % dose/organ ([2]; Bone, 1 hr after iv injection): 5.31 ± 0.31 % dose/organ | % dose/g ([2]; Bone, 2 hr after iv injection): 2.33 ± 0.43 % dose/g | % dose/organ ([2]; Bone, 2 hr after iv injection): 7.84 ± 0.91 % dose/organ | % dose/g [2, 6]: 10.2 ± 1.09 % dose/g | % dose/organ [2, 6]: 4.61 ± 0.60 % dose/organ | % dose/g [2, 7]: 2.23 ± 0.29 % dose/g | % dose/organ [2, 7]: 1.02 ± 0.11 % dose/organ | % dose/g ([2]; Brain, 1 hr after iv injection): 1.88 ± 0.20 % dose/g | % dose/organ ([2]; Brain, 1 hr after iv injection): 0.90 ± 0.08 % dose/organ | % dose/g ([2]; Brain, 2 hr after iv injection): 1.90 ± 0.25 % dose/g | % dose/organ ([2]; Brain, 2 hr after iv injection): 0.85 ± 0.12 % dose/organ | % dose/g [2, 8]: 10.7 ± 2.06 % dose/g | % dose/organ [2, 8]: 1.26 ± 0.20 % dose/organ | % dose/g [2, 9]: 2.86 ± 0.30 % dose/g | % dose/organ [2, 9]: 0.36 ± 0.05 % dose/organ | % dose/g ([2]; Heart, 1 hr after iv injection): 2.20 ± 0.31 % dose/g | % dose/organ ([2]; Heart, 1 hr after iv injection): 0.29 ± 0.03 % dose/organ | % dose/g ([2]; Heart, 2 hr after iv injection): 1.71 ± 0.13 % dose/g | % dose/organ ([2]; Heart, 2 hr after iv injection): 0.19 ± 0.01 % dose/organ | % dose/g [2, 10]: 13.6 ± 0.10 % dose/g | % dose/organ [2, 10]: 5.22 ± 0.33 % dose/organ | % dose/g [2, 11]: 4.41 ± 0.49 % dose/g | % dose/organ [2, 11]: 1.69 ± 0.22 % dose/organ | % dose/g [2, 12]: 3.57 ± 0.64 % dose/g | % dose/organ [2, 12]: 1.36 ± 0.09 % dose/organ | % dose/g [2, 13]: 2.47 ± 0.45 % dose/g | % dose/organ [2, 13]: 1.00 ± 0.24 % dose/organ | % dose/g [2, 14]: 18.2 ± 0.95 % dose/g | % dose/organ [2, 14]: 21.2 ± 0.76 % dose/organ | % dose/g [2, 15]: 11.9 ± 1.63 % dose/g | % dose/organ [2, 15]: 14.2 ± 0.91 % dose/organ | % dose/g ([2]; Liver, 1 hr after iv injection): 8.99 ± 1.19 % dose/g | % dose/organ ([2]; Liver, 1 hr after iv injection): 11.8 ± 0.65 % dose/organ | % dose/g ([2]; Liver, 2 hr after iv injection): 6.72 ± 0.58 % dose/g | % dose/organ ([2]; Liver, 2 hr after iv injection): 8.29 ± 1.09 % dose/organ | % dose/g ([2]; Lung, 2 min after iv injection): 6.83 ± 0.07 % dose/g | % dose/organ ([2]; Lung, 2 min after iv injection): 1.34 ± 0.03 % dose/organ | % dose/g [2, 16]: 2.87 ± 0.32 % dose/g | % dose/organ [2, 16]: 0.54 ± 0.06 % dose/organ | % dose/g ([2]; Lung, 1 hr after iv injection): 2.42 ± 0.34 % dose/g | % dose/organ ([2]; Lung, 1 hr after iv injection): 0.48 ± 0.06 % dose/organ | % dose/g ([2]; Lung, 2 hr after iv injection): 1.96 ± 0.29 % dose/g | % dose/organ ([2]; Lung, 2 hr after iv injection): 0.36 ± 0.05 % dose/organ | % dose/g [2, 17]: 0.65 ± 0.01 % dose/g | % dose/organ [2, 17]: 6.40 ± 0.14 % dose/organ | % dose/g [2, 18]: 1.50 ± 0.21 % dose/g | % dose/organ [2, 18]: 14.5 ± 2.59 % dose/organ | % dose/g [2, 19]: 1.33 ± 0.17 % dose/g | % dose/organ [2, 19]: 13.5 ± 0.83 % dose/organ | % dose/g [2, 20]: 0.98 ± 0.08 % dose/g | % dose/organ [2, 20]: 9.55 ± 0.31 % dose/organ | % dose/g ([2]; Skin, 2 min after iv injection): 0.58 ± 0.07 % dose/g | % dose/organ ([2]; Skin, 2 min after iv injection): 2.13 ± 0.27 % dose/organ | % dose/g [2, 21]: 1.03 ± 0.12 % dose/g | % dose/organ [2, 21]: 3.70 ± 0.28 % dose/organ | % dose/g ([2]; Skin, 1 hr after iv injection): 1.47 ± 0.12 % dose/g | % dose/organ ([2]; Skin, 1 hr after iv injection): 5.67 ± 0.85 % dose/organ | % dose/g ([2]; Skin, 2 hr after iv injection): 1.12 ± 0.05 % dose/g | % dose/organ ([2]; Skin, 2 hr after iv injection): 4.12 ± 0.12 % dose/organ | % dose/g [2, 22]: 4.11 ± 1.02 % dose/g | % dose/organ [2, 22]: 0.47 ± 0.08 % dose/organ | % dose/g [2, 23]: 2.16 ± 0.05 % dose/g | % dose/organ [2, 23]: 0.21 ± 0.00 % dose/organ | % dose/g [2, 24]: 1.89 ± 0.27 % dose/g | % dose/organ [2, 24]: 0.17 ± 0.01 % dose/organ | % dose/g [2, 25]: 1.48 ± 0.20 % dose/g | % dose/organ [2, 25]: 0.14 ± 0.02 % dose/organ
